Laboratory results published in the supplement of paper PMC13380429.
Structures can show the parent of a compound that is named as a salt.

Columns and labels:
Conditions in all cases: 72 h
Caco-2 [1] = test: cell viability relative to DMSO; higher = less toxic
Calu-3 [2] = test: as above
HepG2 [3] = test: as above
U2OS [4] = test: as above
Vero E6 [5] = test: as above
Caco-2 [6] = test: relative viability EC50 (midpoint between 100% and the lowest measured viability); higher = less toxic
Calu-3 [7] = test: as above
HepG2 [8] = test: as above
U2OS [9] = test: as above
Vero E6 [10] = test: as above
Caco-2 [11] = test: drug sensitivity score (DSS) for viability; higher = more toxic; extreme values may be limits of the assay
Calu-3 [12] = test: as above
HepG2 [13] = test: as above
U2OS [14] = test: as above
Vero E6 [15] = test: as above

Compound	cell viability (Caco-2 [1]; 1 nM) [%]	cell viability (Caco-2 [1]; 10 nM) [%]	cell viability (Caco-2 [1]; 100 nM) [%]	cell viability (Caco-2 [1]; 1000 nM) [%]	cell viability (Caco-2 [1]; 10000 nM) [%]	cell viability (Calu-3 [2]; 1 nM) [%]	cell viability (Calu-3 [2]; 10 nM) [%]	cell viability (Calu-3 [2]; 100 nM) [%]	cell viability (Calu-3 [2]; 1000 nM) [%]	cell viability (Calu-3 [2]; 10000 nM) [%]	cell viability (HepG2 [3]; 1 nM) [%]	cell viability (HepG2 [3]; 10 nM) [%]	cell viability (HepG2 [3]; 100 nM) [%]	cell viability (HepG2 [3]; 1000 nM) [%]	cell viability (HepG2 [3]; 10000 nM) [%]	cell viability (U2OS [4]; 1 nM) [%]	cell viability (U2OS [4]; 10 nM) [%]	cell viability (U2OS [4]; 100 nM) [%]	cell viability (U2OS [4]; 1000 nM) [%]	cell viability (U2OS [4]; 10000 nM) [%]	cell viability (Vero E6 [5]; 1 nM) [%]	cell viability (Vero E6 [5]; 10 nM) [%]	cell viability (Vero E6 [5]; 100 nM) [%]	cell viability (Vero E6 [5]; 1000 nM) [%]	cell viability (Vero E6 [5]; 10000 nM) [%]	relative viability EC50 (Caco-2 [6]) [µM]	relative viability EC50 (Calu-3 [7]) [µM]	relative viability EC50 (HepG2 [8]) [µM]	relative viability EC50 (U2OS [9]) [µM]	relative viability EC50 (Vero E6 [10]) [µM]	drug sensitivity score (Caco-2 [11])	drug sensitivity score (Calu-3 [12])	drug sensitivity score (HepG2 [13])	drug sensitivity score (U2OS [14])	drug sensitivity score (Vero E6 [15])
O=C(NC1CC1)c1cc(-c2cccs2)on1 [ISX-9]	98.1	98.3	93.3	101	87.6	93.6	105	104	99.7	84.3	104	95.8	102	103	87.6	97.7	98.4	98.4	102	85.5	111	96.5	108	99.4	101	> 10	> 10	> 10	> 10	> 10	0.1	0.3	0	0.1	0
COc1ccc2cc(-c3cc(-c4cc(Cl)cc(Cl)c4)nn3[C@@H](C)c3ccc(C(=O)NCCC(=O)O)cc3)ccc2c1 [MK-0893]	87.9	93.7	95.8	90.1	87.6	110	94.7	97.7	96.2	91.3	88.5	106	86.8	93.8	90	95.8	98.2	93.9	96.8	89.6	97.7	102	98.8	92.3	84.5	> 10	> 10	> 10	> 10	> 10	0	0	0	0	0.6
Cc1cc(C(N)=O)ccc1-n1c(CCC(=O)O)ccc1-c1ccc(-n2ccnc2)cc1 [N6022]	91.8	99.5	100	104	100	99.1	98.5	93.9	95.5	101	104	89.6	111	107	104	96.7	103	97.7	101	97.2	99.3	96.5	94.8	94	106	> 10	> 10	> 10	> 10	> 10	0	0	0	0	0
CN(C(=O)Cc1ccccc1)[C@H](CN1CCCC1)c1ccccc1 [N-MPPP]	111	94.8	102	97.4	95.9	103	96.2	91.6	106	93.4	93.5	93.6	97.8	100	98	95	95.8	101	102	99.1	105	104	102	106	99.5	> 10	> 10	> 10	> 10	> 10	0	0	0	0	0
CC(=O)N[C@@H](C=O)[C@@H](O)[C@H](O)[C@H](O)CO [N-acetyl-D-glucosamine]	93.3	97.6	113	102	107	103	111	101	93	95.9	91	85.7	94	94.7	87.3	102	99.7	102	97.3	102	100	110	104	106	87.5	> 10	> 10	> 10	> 10	> 10	0	0	0	0	0
CNCCc1cnc[nH]1 [N-alpha-methylhistamine-dihydrochloride]	94.5	104	92.5	98.2	102	101	97.2	91.5	109	94.5	104	95.9	103	87.7	112	97.4	105	101	102	98	99.4	91.6	96.7	91.5	97.1	> 10	> 10	> 10	> 10	> 10	0	0	0	0	0
O=C1CC[C@@]2(O)[C@H]3Cc4ccc(O)c5c4[C@@]2(CCN3CC2CC2)[C@H]1O5 [NALTREXONE HYDROCHLORIDE]	107	99	95.3	99.1	90	97.3	100	101	99.2	99	93.8	110	102	95.1	92.1	102	97.2	99.8	100	101	98.1	106	100	103	103	> 10	> 10	> 10	> 10	> 10	0	0	0	0	0
N=C(NCCC[C@H](N)C(=O)O)N[N+](=O)[O-] [NG-nitro-arginine]	92.7	88.8	106	84.2	89.4	93.5	106	91.7	93.7	94.6	96.7	101	95.2	101	95.2	104	95.6	101	93.2	97.9	104	101	103	101	92.8	> 10	> 10	> 10	> 10	> 10	0	0	0	0	0
Nc1nc(OCC2CCCCC2)c2nc[nH]c2n1 [NU-2058]	98.4	94.6	96.2	96.2	90.3	92.4	106	97.2	109	105	120	106	98.3	104	86.8	96.2	103	94.6	95.6	96	103	97.6	98.2	102	99.7	> 10	> 10	> 10	> 10	> 10	0	0	0.1	0	0
O=C(Nc1cc2cc[nH]c2cn1)c1ccccc1 [OAC1]	102	97	100	85.6	77.3	99.8	96.8	103	102	89.3	104	116	101	113	80.8	105	95.8	101	93.3	83.3	97.1	99.7	94.3	99.1	86.2	> 10	> 10	> 10	> 10	> 10	2.3	0	0.3	1	0.2
COc1cccc2cc(-c3nc([C@H]4CC[C@H](C(=O)O)CC4)n4ncnc(N)c34)[nH]c12 [OSI-027]	98.5	100	86.4	56.7	26.3	92.4	100	70.6	33.7	26.3	112	106	102	48.8	28.4	92.5	100	92.3	57.2	17.2	102	103	98.3	80.1	39.7	0.603	0.145	0.693	0.903	1.33	9.9	15.9	9.9	9.7	6.2
CC(C)n1nc(-c2cc3cc(O)ccc3[nH]2)c2c(N)ncnc21 [PP242]	104	88.9	80.4	41.4	31.3	107	94.2	79.6	26.5	20.1	100	121	90.2	50	19.8	99.2	99	96	56.1	16.4	107	105	96.2	67.9	15.9	0.208	0.203	0.652	0.927	1.26	13.1	16	10.8	9.8	8.7
COc1ccccc1-c1c[nH]c2ncc(-c3cncc(C(=O)N(C)C)c3)cc12 [PPY-A]	88.4	119	102	106	102	108	96.4	95.3	115	126	120	96.9	92.1	114	99.7	95.4	112	101	101	96.4	95.4	100	100	101	112	> 10	> 10	> 10	> 10	> 10	0	0	0	0	0
C=CC[N+]1([C@H]2C[C@H]3[C@@H]4CC[C@H]5C[C@H](O)[C@@H](N6CCOCC6)C[C@]5(C)[C@H]4CC[C@]3(C)[C@H]2OC(C)=O)CCCC1 [ROCURONIUM BROMIDE]	104	103	107	132	79.8	98.1	105	107	94.9	105	97.7	113	108	111	108	106	99.3	103	103	108	91	95.1	89.5	88.5	95.6	> 10	> 10	> 10	> 10	> 10	0.2	0	0	0	0
